What was measured:
[1] = test system: New Zealand white rabbits; test: local and systemic toxicity after glaucoma filtration surgery; format: in vivo; details: rabbit
Procedure: (§1) The animals were evaluated twice weekly by a single-masked researcher. Bleb width and length were measured using calipers and intraocular pressures (IOP) were measured using a tonovet (Icare). The primary efficacy end-point was bleb survival as this is indicative of the long-term opening of the filtration pathway created during surgery. Bleb failure was defined as the appearance of a flat, scarred, and vascularised bleb associated with a deep anterior chamber. IOP survival, defined as when the intraocular pressure remains below the baseline IOP measurement, and bleb area were used as secondary end-points. Conjunctival vascularity was graded on a scale of 0 to 3 (0: avascular, 1: normal, 2: hyperaemic, 3: very hyperaemic).
For the Ki67 staining, the sections were dewaxed, rehydrated, and microwaved for 15 minutes in sodium citrate buffer (pH 6) for antigen retrieval. After incubating in 1.6% hydrogen peroxide followed by 10% normal horse serum, the sections were incubated in mouse anti-Ki67 (M7248, Dako) diluted 1 in 25 in 1% BSA/PBS for 1 hour at room temperature. The sections were then incubated in biotinylated horse anti-mouse IgG (Vector) and Avidin-Biotin complex (Vector), developed in DAB (Vector), and counterstained in haematoxylin.
All animals were carefully evaluated for any signs of ocular or systemic toxicity during the study. At day 30, 100 µl of aqueous, 1 ml of vitreous, and 1 ml of venous blood were sampled on the rabbit eyes receiving CCG-222740 or CCG-203971 or vehicle control. The venous blood samples were left to clot for 30 minutes at room temperature, spun at 4000 rpm for 15 minutes at 4 °C, and the serum was collected as the supernatant. Samples were extracted in acetonitrile and the levels of CCG-222740 and CCG-203971 were measured in the aqueous, vitreous, and serum using liquid chromatography/mass spectrometry (LC/MS) in the Metabolomics Core at Michigan State University (East Lansing, MI).

[2] = test system: New Zealand white rabbits; test: rabbit glaucoma filtration surgery model of scar tissue formation, clinical end-points; format: in vivo
Description: 24 female New Zealand white rabbits (2–2.4 kg, 12—14 weeks, Highgate, UK) underwent experimental glaucoma filtration surgery to the left eye under general anaesthesia, [28]. A superonasal fornix-based conjunctival flap was raised behind the limbus and a micro-vitreoretinal blade (20 gauge, 0.90 mm, Surgistar USA) was used to make a partial thickness scleral tunnel to the corneal stroma. A 22 gauge, 25 mm intravenous cannula was passed through the tunnel and the needle was removed once it was visible in the cornea. The cannula was advanced into the mid-pupillary area, trimmed at its scleral edge and fixed to the scleral surface using a 10–0 nylon suture (Alcon, USA). The conjunctival incision was closed using two interrupted 10–0 nylon sutures. In a randomised, prospective, single-masked observer study, the rabbits received either intraoperative 0.2 mg/ml mitomycin-C (MMC) [N = 6], or postoperative subconjunctival injections (100 μl) of 100 μM CCG-203971 [N = 6] or 100 μM CCG-222740 [N = 6] or vehicle control [N = 6] daily for the first nine days followed by twice weekly for three weeks, [33]. CCG-222740 and CCG-203971 were dissolved in 100% DMSO (Sigma, UK) at 10 mM and then diluted to 100 μM with sterile PBS. The same volume of DMSO was diluted with PBS for the vehicle control. For the MMC-treated group, a small corneal light shield sponge was soaked in 1 ml of 0.2 mg/ml MMC and applied over the conjunctiva for 3 minutes, and the area was then thoroughly washed with 50 ml of physiologic balanced salt solution (Alcon Laboratories, Inc., Fort Worth, TX). All the postoperative subconjunctival injections were given at the same site by a single-masked researcher.
as §1

CO[C@@]12[C@H](COC(N)=O)C3=C(C(=O)C(C)=C(N)C3=O)N1C[C@@H]1N[C@@H]12 [MMC, mitomycin-C, reference compound]
Ki67 positive cells in the conjunctival epithelium ([1]; day 30): markedly reduced the number of Ki67 positive cells
conjunctival vascularity ([1]; in vivo): thin avascular blebs
local toxicity, conjunctival epithelium ([1]; in vivo): caused disruption of the epithelial cell layer
bleb area compared to vehicle control [2]: significantly larger
mean day of bleb failure ([2]; CCG compounds 100 μM subconjunctival, MMC 0.2 mg/ml intraoperative, vehicle 14 days): 28.8 days
intraocular pressure (IOP) ([2]; versus vehicle control or baseline): significantly lower

From publication PMC5428058, “Local delivery of novel MRTF/SRF inhibitors prevents scar tissue formation in a preclinical model of fibrosis” (Scientific Reports, 2017)
